Test results published in patent publication US10550095B2, “Cancerous cell growth inhibiting compounds” (WISYS TECHNOLOGY FOUNDATION, INC., priority 2016, dated 2020).
Several values for one entry are separate records, joined by “and”; a condition that tells them apart may be missing. Equal entries are not always repeated. Entries after “also recorded” stand apart in the source; their conditions may differ.

Columns and labels:
zebrafish embryos [1] = assay: Inhibition of melanin synthesis in zebrafish embryos, treated 24-76 hpf (Protocol 1); assay type: in vivo; conditions: for pigmentation in comparison to the control group: zebrafish embryos treated 24 to 76 hpf
Description: (§1) The testing protocols for these compounds are as follows: • a. […] The embryos were monitored and imaged throughout their development to track the development of melanin pigment relative to a control group to which water was administered (Protocol 1). • b. […] The embryos were again monitored and imaged throughout their development relative to a control group to which water was administered (Protocol 2). • c. Additionally, to test the ability of the pigment to recover after being treated with our drugs, all embryos were treated at 24 hpf with the chemicals until the 48 hpf or 64 hpf time period, then washed with water to remove the treatment. The embryos were again monitored and imaged throughout their development relative to a control group to which water was administered (Protocol 3).
(§2) The black pigment (or melanin) is very easy to observe in zebrafish. In brief, adult zebrafish are taken to breed embryos. Morphologically normal embryos of 24 hours post fertilization (hpf) stage were selected for incubation in the drugs from 24 to 76 hours. During the incubation, the embryos are monitored and imaged (see FIGS. 1 and 3) to track the development of melanin. […] To broaden the comparison with other skin-whitening products, this project can also test at least three other compounds, Kojic acid, Gallic acid and Haginin. […] In the meantime, the whole organism context also allows us to examine the toxicological profile, if any, of these compounds.

zebrafish embryos [2] = assay: Skin Lightening Efficacy of All Analogs on Zebrafish Embryos (Table 1); assay type: in vivo
Description: as §1, §2

zebrafish embryos [3] = assay: Toxicity in developing zebrafish embryos
Description: as §2

MITF [4] = assay: RT-qPCR of MITF (mit-f) in melanoma cells; assay type: cell-based, mouse
From the text: (§3) To understand how A11 inhibits melanoma proliferation, we examined the MITF expression level in A11-treated B16-F10 cells by western blot and RT-qPCR.
(§4) The results of several qPCR experiments using melanoma cells were compiled in FIG. 20. Pax3 and sox10 are genes determine the melanocyte precursors while mit-f is the specific transcription factor that initiates melanocyte differentiation. Dct and tyr genes are expressed in differentiated melanocytes. […] The decrease in magnitude is not significant likely due to the very heterogeneous cell types in melanoma.

MAPK = assay: Western blot for phosphorylated MAPK in melanoma cells; assay type: cell-based, mouse; conditions: melanoma cells (FIG. 19A)
From the text: We wanted to further understand the molecular mechanism of A11 and its derivatives by examining the activities of MAPK, Akt, and PRPP pathways which regulate cell proliferation and cell death.
MAPK is involved in the major cell proliferation signaling pathway. In many cancer cells, MAPK is activated at high level by phosphorylation. Using the anti-phosphorylated-MAPK (p-MAPK) on western blot, it is very easy to understand the proliferation ability in cells. […] While the results are against our hypothesis and current understanding, it raises a very interesting mechanism of A11 which requires further investigation. […] The current understanding is that activated MAPK and Akt both lead to cell proliferation.

tyrosinase = assay: RT-qPCR of tyrosinase in melanoma cells; assay type: cell-based, mouse
From the text: as §3, §4

B16-F10 melanoma cells [5] = assay: Melanin in melanoma cells; assay type: cell-based, mouse; conditions: for Melanin: melanoma cells
From the text: (MEK-I is a known MEK inhibitor as a comparison purchased from Sigma): […]

zebrafish embryos [6] = assay: Effect on existing melanin and/or melanocytes, embryos treated at 48 hpf (Protocol 2); assay type: in vivo
Description: (§5) The testing protocols for these compounds are as follows: • a. […] The embryos were monitored and imaged throughout their development to track the development of melanin pigment relative to a control group to which water was administered (Protocol 1). • b. To test the effects of the drugs on existing melanin and/or melanocytes, the embryos were treated with the chemicals at 48 hpf, after pigment had developed. The embryos were again monitored and imaged throughout their development relative to a control group to which water was administered (Protocol 2). • c. Additionally, to test the ability of the pigment to recover after being treated with our drugs, all embryos were treated at 24 hpf with the chemicals until the 48 hpf or 64 hpf time period, then washed with water to remove the treatment. The embryos were again monitored and imaged throughout their development relative to a control group to which water was administered (Protocol 3).
To test the effects of the drugs on existing melanin and/or melanocytes, the embryos were treated with the chemicals A11, MEK-I and PTU at 48 hpf, after pigment had developed. The embryos were again monitored and imaged throughout their development according to Protocol 2.

zebrafish embryos [7] = assay: Pigment recovery after compound withdrawal (Protocol 3); assay type: in vivo; conditions: treated 24-48 hpf or 24-64 hpf, then washed; by 72 hpf
Description: as §5
It has been reported that melanin usually reappears after the withdrawal of skin whitening products. […] The pigmentation was monitored closely for 48-72 hours. Similarly, this experiment was repeated at least three times to gain a reproducible result.

B16-F10 melanoma cells [8] = assay: cells; assay type: cell-based
MITF [9] = assay: Western blot for MITF protein level in B16-F10 cells; assay type: cell-based, mouse; conditions: western blot vs DMSO control (FIG. 21)
From the text: as §3

[10] = test system: DCT (dopachrome tautomerase); assay: RT-qPCR of DCT in melanoma cells; assay type: cell-based, mouse
From the text: as §3, §4

Pax3 = assay: RT-qPCR of Pax3 in melanoma cells; assay type: cell-based, mouse
From the text: as §3, §4

[11] = test system: transgenic melanoma zebrafish embryos; assay: Melanoma formation and recovery in transgenic melanoma zebrafish embryos; assay type: in vivo
Description: (§6) The intracellular signaling pathway that involves Raf and MEK is known to be the major pathway to regulate cell proliferation. Many current melanoma drugs such as cobimetinib works by inhibiting Raf or MEK. While they are effective in inhibiting melanoma growth, they exert different degrees of side effect on normal cells by inhibiting the Raf-MEK pathway. […] Also, with regard to FIG. 13, the compound SK-03-92 is shown to inhibit melanoma cell growth by approximately 10% at 10 μM and at 100% at 40 μM.

MEK = MEK activity (FIG. 12)
From the text: FIG. 12 are photo illustrations of MEK activity with exemplary embodiments of the human drug treatments of the present invention; and
as §6

Question: With `OC[C@H]1O[C@@H](Oc2ccc(O)cc2)[C@H](O)[C@@H](O)[C@@H]1O` [Arbutin] as the molecule, how does the “pigmentation in comparison to the control group” value (from here on “pigmentation in comparison”) (zebrafish embryos [1]; 100 μM) read?
Answer: 30%

Question: `COc1cc(/C=C/Oc2ccccc2)cc(OC)c1` [CL2] was tested. Which Pigmentation (zebrafish embryos [2]; concentration not given) did it give?
Answer: 5%

Question: Which Pigmentation (zebrafish embryos [2]; 40 uM) does the source give for `COc1cc(O)cc(/C=C/Oc2ccccc2)c1` [CL1] here?
Answer: 0% (40 uM)

Question: With `N#CC(=C(N)Sc1ccccc1N)C(C#N)=C(N)Sc1ccccc1N` [MEK-I, reference compound] as the molecule, how does the “toxicity in embryos (in words)” value (zebrafish embryos [3]; developing zebrafish embryos) read?
Answer: various levels of toxicity; also recorded: Notocord toxicity is present

Question: And the “MITF (mit-f) mRNA expression (in words)” value (MITF [4])?
Answer: no effect on the MITF transcription

Question: And the “amount of p-MAPK / MAPK activity (in words)” value (MAPK)?
Answer: effectively suppresses the amount of p-MAPK

Question: And the “tyrosinase expression (in words)” value (tyrosinase)?
Answer: decreased

Question: And the Melanin (B16-F10 melanoma cells [5]; 10 μM)?
Answer: 104% and 78% and 94%

Question: And the Melanin (B16-F10 melanoma cells [5]; 20 μM)?
Answer: 82% and 84%

Question: And the “effect on existing pigment (in words)” value (zebrafish embryos [6])?
Answer: has no effect; also recorded: ineffective

Question: What about the “pigmentation recovered after wash-off” value (zebrafish embryos [7]) of the same molecule?
Answer: 100%

Question: And the “Average Melanoma growth (from the previous chart)” value (“Average Melanoma growth” for short) (B16-F10 melanoma cells [8]; 10 μM)?
Answer: 67%

Question: And the “Average Melanoma growth” value (B16-F10 melanoma cells [8]; 20 μM)?
Answer: 35%

Question: What about the Growth (B16-F10 melanoma cells [8]; melanoma cells, 10 μM) of the same molecule?
Answer: 72% and 62%

Question: What about the Pigmentation (zebrafish embryos [1]; zebrafish embryos treated 24-76 hpf, 10 μM) of the same molecule?
Answer: 60%

Question: And the “MITF protein level (in words)” value (MITF [9])?
Answer: high level of MITF

Question: What about the “DCT expression (in words)” value [10] of the same molecule?
Answer: decreased

Question: And the “Pax3 expression (in words)” value (Pax3)?
Answer: increases Pax3 transcription

Question: Which “toxicity in embryos (in words)” value (zebrafish embryos [3]; zebrafish, in vivo) does the source give for `COc1cc(O)cc(/C=C/c2cc3ccccc3s2)c1` [SK0392, (E)-3-(2-(Benzo[b]thiophen-2-yl)vinyl)-5-methoxyphenol] here?
Answer: almost no detectable toxicity

Question: And the Melanin (B16-F10 melanoma cells [5]; 10 μM)?
Answer: 97%

Question: And the “melanin in B16-F10 cells (in words)” value (B16-F10 melanoma cells [5]; mouse cell line B16-F10)?
Answer: decrease of melanin

Question: What about the “formation and recovery of melanoma (in words)” value [11] of the same molecule?
Answer: inhibited the formation and recovery of melanoma

Question: And the “MEK activity (in words)” value (MEK)?
Answer: increasing MEK activity

Question: What about the “Average Melanoma growth” value (B16-F10 melanoma cells [8]; 10 μM) of the same molecule?
Answer: 100%

Question: What about the inhibition at 10 µM (B16-F10 melanoma cells [8]; Mus musculus, B16-F10, 10 μM (FIG. 13), read-out: inhibition of melanoma cell growth) of the same molecule?
Answer: ~10%

Question: What about the inhibition at 40 µM (B16-F10 melanoma cells [8]; Mus musculus, B16-F10, 40 μM (FIG. 13), read-out: inhibition of melanoma cell growth) of the same molecule?
Answer: 100%

Question: And the “inhibition of melanoma cell growth / cell number (in words)” value (B16-F10 melanoma cells [8]; melanoma cells)?
Answer: decrease of melanin as well as the cell number

Question: What about the Growth (B16-F10 melanoma cells [8]; melanoma cells, 10 μM) of the same molecule?
Answer: 100%

Question: And the Pigmentation (zebrafish embryos [2]; 50 uM)?
Answer: 20% (50 uM)

Question: Which Pigmentation (zebrafish embryos [2]; concentration not given) does the source give for `COc1cc(O)cc(/C=C/n2ccc(C(F)(F)F)n2)c1` [SK0951] here?
Answer: 0%

Question: `COc1cc(O)cc(/C=C/Sc2ccccc2)c1` [CL4] was tested. Which Melanin (B16-F10 melanoma cells [5]; 10 μM) did it give?
Answer: 107%

Question: What about the “Average Melanoma growth” value (B16-F10 melanoma cells [8]; 10 μM) of the same molecule?
Answer: 93%

Question: What about the Growth (B16-F10 melanoma cells [8]; melanoma cells, 10 μM) of the same molecule?
Answer: 93%

Question: And the Pigmentation (zebrafish embryos [2]; concentration not given)?
Answer: 0%

Question: What does the source list for `COc1cc(O)cc(/C=C/n2ccc3ccccc32)c1` [SK0953]?
Answer: Melanin (B16-F10 melanoma cells [5]; 20 μM): 96%; Average Melanoma growth (from the previous chart) (B16-F10 melanoma cells [8]; 20 μM): 71%; Growth (B16-F10 melanoma cells [8]; melanoma cells, 20 μM): 71%; Pigmentation (zebrafish embryos [2]; concentration not given): 0%

Question: With `COc1cc(O)cc(/C=C/n2ncc3ccccc32)c1` [SK0954] as the molecule, how does the Pigmentation (zebrafish embryos [2]; concentration not given) read?
Answer: 0%

Question: For `CC1=C(/C=C/C(C)=C/C=C/C(C)=C/C(=O)O)C(C)(C)CCC1` [Tretinoin], which “pigmentation in comparison” value (zebrafish embryos [1]; 0.1%) is on record?
Answer: 80%

Question: Which Pigmentation (zebrafish embryos [2]; concentration not given) does the source give for `COc1cc(O)cc(/C=C/c2cccs2)c1` [CL6] here?
Answer: 0%

Question: For `COc1cc(O)cc(/C=C/Oc2cccc(OC)c2)c1` [Analog A8], which Pigmentation (zebrafish embryos [2]; concentration not given) is on record?
Answer: 10%

Question: How did the “toxicity in embryos (in words)” value (zebrafish embryos [3]; developing zebrafish embryos) turn out when `NC(=S)Nc1ccccc1` [PTU, phenylthiourea, reference compound] was run?
Answer: various levels of toxicity

Question: What about the Melanin (B16-F10 melanoma cells [5]; concentration not given) of the same molecule?
Answer: 59% and 67% and 89% and 64%

Question: What about the “effect on existing pigment (in words)” value (zebrafish embryos [6]) of the same molecule?
Answer: remove existing pigment

Question: What about the existing pigment remaining (zebrafish embryos [6]) of the same molecule?
Answer: 20%

Question: And the “pigmentation recovered after wash-off” value (zebrafish embryos [7])?
Answer: 100%

Question: And the “Average Melanoma growth” value (B16-F10 melanoma cells [8]; concentration not given)?
Answer: 107%

Question: And the Growth (B16-F10 melanoma cells [8]; melanoma cells, concentration not given)?
Answer: 87% and 107% and 128% and 106%

Question: And the “pigmentation inhibition (in words)” value (zebrafish embryos [1]; zebrafish embryos treated 24-76 hpf)?
Answer: nearly complete pigmentation loss

Question: What about the Pigmentation (zebrafish embryos [1]; zebrafish embryos treated 24-76 hpf, 0.003%) of the same molecule?
Answer: 10%

Question: Which Melanin (B16-F10 melanoma cells [5]; 10 μM) does the source give for `COc1cc(O)cc(/C=C/Oc2cccc(C)c2)c1` [Analog A9] here?
Answer: 101%

Question: What about the Melanin (B16-F10 melanoma cells [5]; 40 μM) of the same molecule?
Answer: 96%

Question: And the “Average Melanoma growth” value (B16-F10 melanoma cells [8]; 10 μM)?
Answer: 78%

Question: What about the “Average Melanoma growth” value (B16-F10 melanoma cells [8]; 40 μM) of the same molecule?
Answer: 76%

Question: What about the Growth (B16-F10 melanoma cells [8]; melanoma cells, 10 μM) of the same molecule?
Answer: 78%

Question: What about the Growth (B16-F10 melanoma cells [8]; melanoma cells, 40 μM) of the same molecule?
Answer: 76%

Question: And the Pigmentation (zebrafish embryos [2]; concentration not given)?
Answer: 10%

Question: `NC(=O)c1cccnc1` [Niacinamide] was tested. Which “pigmentation in comparison” value (zebrafish embryos [1]; 1%) did it give?
Answer: 10%

Question: `COc1ccc(S/C=C/c2cc(O)cc(OC)c2)cc1` [SK0503] was tested. Which Pigmentation (zebrafish embryos [2]; concentration not given) did it give?
Answer: 0%

Question: Which Pigmentation (zebrafish embryos [2]; concentration not given) does the source give for `COc1cc(O)cc(/C=C/Sc2ccccc2C(C)C)c1` [SK0501] here?
Answer: 0%
